The target in experiment [1] is T1, recombinant human LTA4 hydrolase (rhLTA4H) (Homo sapiens, UniProt P09960).
T1 construct: made in house; host or cells: Spodoptera frugiperda (Sf-9) cells, baculovirus (pFastBac1)
T1 sequence (P09960 1-611): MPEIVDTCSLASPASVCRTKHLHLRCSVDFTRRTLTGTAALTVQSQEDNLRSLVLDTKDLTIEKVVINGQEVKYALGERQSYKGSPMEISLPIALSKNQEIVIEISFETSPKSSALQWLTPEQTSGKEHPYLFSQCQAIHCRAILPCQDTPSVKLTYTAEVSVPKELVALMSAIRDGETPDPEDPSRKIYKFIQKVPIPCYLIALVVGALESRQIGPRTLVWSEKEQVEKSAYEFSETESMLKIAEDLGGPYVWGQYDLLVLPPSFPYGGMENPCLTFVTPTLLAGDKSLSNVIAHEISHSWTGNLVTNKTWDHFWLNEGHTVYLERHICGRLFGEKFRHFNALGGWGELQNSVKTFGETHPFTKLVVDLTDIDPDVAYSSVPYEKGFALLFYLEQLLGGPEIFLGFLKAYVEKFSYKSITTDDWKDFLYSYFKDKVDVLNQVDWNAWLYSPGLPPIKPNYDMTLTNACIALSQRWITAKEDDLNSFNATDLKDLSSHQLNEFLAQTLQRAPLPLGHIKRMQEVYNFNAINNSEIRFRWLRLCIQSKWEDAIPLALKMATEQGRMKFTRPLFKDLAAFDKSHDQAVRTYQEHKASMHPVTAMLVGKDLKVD
Put plainly: Recombinant human LTA4 hydrolase assay for LTA4 hydrolase inhibitor activity. As to conditions: rhLTA4H, LTB4 by immunoassay; single determination or average of two or more; mark after value = form tested: ′ free base, ″ hydrochloride, ^ formate; read-out: IC50. Format: biochemical. An outline of the steps:
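LTB4 formation, measured by enzyme immunoassay, was the read-out. The enzyme, recombinant human LTA4H expressed in Sf-9 insect cells (10 ng per reaction), was exposed to compound for 10 min at room temperature before hydrolysed-ester LTA4 substrate was added for 30 min. Enzyme-free negatives were included.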

Experiment [2] relates to LTB4 production in murine blood (LTA4H). Put plainly: LTB4 production by calcium ionophore-stimulated murine blood for LTA4H inhibitor activity. The class given is cell-based, CD-1 mice. The following applies: Mus musculus; murine blood diluted 1 in 15, A23187 stimulated; single determination or average; mark after value = form tested: ′ free base, ″ hydrochloride, ^ formate; read-out: IC50. In a few lines: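 LTB4 was measured by ELISA in supernatants after calcium ionophore A23187 stimulation (final 7 μg/mL, 30 min, 37° C) of CD-1 mouse blood collected on heparin. Compound was preincubated with the blood for 15 min beforehand. Values come from one determination or average several.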

Where a name gives a salt, the structure may show the parent alone.

Take `O=C(C1CCN(Cc2c[nH]c3cc(Oc4nc5ccccc5s4)ccc23)CC1)N1CCOCC1` [Example 25, {1-[6-(Benzothiazol-2-yloxy)-1H-indol-3-ylmethyl]-piperidin-4-yl}-morpholin-4-yl-methanone]: the IC50 (commonly the concentration needed to halve the response being measured) in experiment [1] was found to be 2 nM; in experiment [2] it was 100 nM.
Consider `O=C1CCCN1C1CCN(Cc2coc3cc(Oc4nc5ccccc5s4)ccc23)CC1` [Example 179, 1-{1-[6-(Benzothiazol-2-yloxy)-benzofuran-3-ylmethyl]-piperidin-4-yl}-pyrrolidin-2-one], for which the IC50 in experiment [1] turned out to be 11 nM; in experiment [2], 75 nM.
For `c1cnc2nc(Oc3ccc4c(CN5CCc6sc7ccccc7c6C5)c[nH]c4c3)sc2c1` [Example 34, 2-[6-(Thiazolo[4,5-b]pyridin-2-yloxy)-1H-indol-3-ylmethyl]-1,2,3,4-tetrahydro-benzo[4,5]thieno[3,2-c]pyridine formate], in that order: 20 nM and 401 nM.
The matching figures for `CCCOC1CN(Cc2coc3cc(Oc4nc5ncccc5s4)ccc23)C1` [Example 314, 2-[3-(3-Propoxy-azetidin-1-ylmethyl)-benzofuran-6-yloxy]-thiazolo[4,5-b]pyridine]: 15 nM and 28 nM.
As to `CC(C)CNCc1coc2cc(Oc3nc4ncccc4s3)ccc12` [Example 304, Isobutyl-[6-(thiazolo[4,5-b]pyridin-2-yloxy)-benzofuran-3-ylmethyl]-amine formate], the half-inhibitory concentration (IC50) in experiment [1] turned out to be 3 nM; in experiment [2], 24 nM.
For the compound `c1ccc2c(c1)CN(Cc1coc3cc(Oc4nc5ncccc5s4)ccc13)C2` [Example 331, 2-[3-(1,3-Dihydro-isoindol-2-ylmethyl)-benzofuran-6-yloxy]-thiazolo[4,5-b]pyridine], the IC50 stood at 54 nM in experiment [1] and 1060 nM in experiment [2].
As for `NC1CCN(Cc2c[nH]c3cc(Oc4nc5ccccc5s4)ccc23)CC1` [Example 50, 1-[6-(Benzothiazol-2-yloxy)-1H-indol-3-ylmethyl]-piperidin-4-ylamine 2HCl], the IC50 in experiment [1] was 28 nM; in experiment [2] it was 739 nM.
In the case of `CC(=O)N[C@H]1C[C@H]2CC[C@@H](C1)N2Cc1c[nH]c2cc(Oc3nc4cccnc4s3)ccc12` [Example 43, meso-endo-N-{8-[6-(Thiazolo[5,4-b]pyridin-2-yloxy)-1H-indol-3-ylmethyl]-8-aza-bicyclo[3.2.1]oct-3-yl}-acetamide], the IC50 in experiment [1] was 6 nM; in experiment [2], 409 nM.
Consider `c1ccc2sc(Oc3ccc4c(CN5CC6CNCC6C5)c[nH]c4c3)nc2c1` (stereo not drawn) [Example 51, 2-[3-(Hexahydro-pyrrolo[3,4-c]pyrrol-2-ylmethyl)-1H-indol-6-yloxy]-benzothiazole 2HCl], for which the IC50 in experiment [1] was 45 nM; in experiment [2], 180 nM.
For the compound `O=C(c1coc2cc(Oc3nc4ncccc4s3)ccc12)N1CCC(C(=O)N2CCCCC2)CC1` [Example 384, [4-(Piperidine-1-carbonyl)-piperidin-1-yl]-[6-(thiazolo[4,5-b]pyridin-2-yloxy)-benzofuran-3-yl]-methanone], the concentration for half-maximal inhibition (IC50) in experiment [1] turned out to be 12 nM; in experiment [2] it was 120 nM.
In the case of `CC(=O)NC1CCN(C(=O)c2coc3cc(Oc4nc5ncccc5s4)ccc23)CC1` [Example 368, N-{1-[6-(Thiazolo[4,5-b]pyridin-2-yloxy)-benzofuran-3-carbonyl]-piperidin-4-yl}-acetamide], the results for the half-inhibitory concentration (IC50) in experiment [1] and in experiment [2] were 26 nM and 170 nM, respectively.
As for `NC(=O)C1CCN(Cc2c[nH]c3cc(Oc4nc5ncccc5s4)ccc23)CC1` [Example 17, 1-[6-(Thiazolo[4,5-b]pyridin-2-yloxy)-1H-indol-3-ylmethyl]-piperidine-4-carboxylic acid amide], the IC50 in experiment [1] is 2 nM; in experiment [2], 118 nM.
Consider `c1ccc(C2CCN(Cc3c[nH]c4cc(Oc5nc6ccccc6s5)ccc34)CC2)cc1` [Example 8, 2-[3-(4-Phenyl-piperidin-1-ylmethyl)-1H-indol-6-yloxy]-benzothiazole], for which the 50% inhibitory concentration (IC50) turned out to be 11 nM in experiment [1] and 1140 nM in experiment [2].
The matching figures for `c1cnc2nc(Oc3ccc4c(CN5CCC(N6CCOCC6)CC5)coc4c3)sc2c1` [Example 285, 2-[3-(4-Morpholin-4-yl-piperidin-1-ylmethyl)-benzofuran-6-yloxy]-thiazolo[4,5-b]pyridine formate]: 16 nM and 50 nM.
For `CC(=O)N[C@H]1C[C@H]2CC[C@@H](C1)N2CCc1coc2cc(Oc3nc4ccccc4s3)ccc12` [Example 129, meso-endo-N-(8-{2-[6-(Benzothiazol-2-yloxy)-benzofuran-3-yl]-ethyl}-8-aza-bicyclo[3.2.1]oct-3-yl)-acetamide], in that order: 13 nM and 180 nM.
Take `CC(=O)N[C@H]1C[C@H]2CC[C@@H](C1)N2Cc1c[nH]c2cc(Oc3nc4ccccc4s3)ccc12` [Example 13, meso-endo-N-{8-[6-(Benzothiazol-2-yloxy)-1H-indol-3-ylmethyl]-8-aza-bicyclo[3.2.1]oct-3-yl}-acetamide]: the IC50 was 2 nM in experiment [1] and 100 nM in experiment [2].
In the case of `O=C(c1ccoc1)N1CC2CN(Cc3coc4cc(Oc5nc6ncccc6s5)ccc34)CC2C1` (stereo not drawn) [Example 359, Furan-3-yl-{5-[6-(thiazolo[4,5-b]pyridin-2-yloxy)-benzofuran-3-ylmethyl]-hexahydro-pyrrolo[3,4-c]pyrrol-2-yl}-methanone], the IC50 in experiment [1] worked out at 8 nM; in experiment [2], 190 nM.
Turning to `O=C(O)C1CCCN(Cc2c[nH]c3cc(Oc4nc5ccccc5s4)ccc23)C1` (stereo not drawn) [Example 47, 1-[6-(Benzothiazol-2-yloxy)-1H-indol-3-ylmethyl]-piperidine-3-carboxylic acid], the IC50 was 21 nM in experiment [1] and 870 nM in experiment [2].
`CCN(CC)Cc1coc2cc(Oc3nc4ncccc4s3)ccc12` [Example 219, Diethyl-[6-(thiazolo[4,5-b]pyridin-2-yloxy)-benzofuran-3-ylmethyl]-amine]: the IC50 is 2 nM in experiment [1] and 20 nM in experiment [2].
Turning to `FC1CCCN(Cc2coc3cc(Oc4nc5ncccc5s4)ccc23)C1` (stereo not drawn) [Example 350, 2-[3-(3-Fluoro-piperidin-1-ylmethyl)-benzofuran-6-yloxy]-thiazolo[4,5-b]pyridine], the concentration for half-maximal inhibition (IC50) in experiment [1] was determined as 26 nM; in experiment [2], 38 nM.
In the case of `NC(=O)C1CCN(Cc2cc3cc(Oc4nc5ncccc5s4)ccc3o2)CC1` [Example 88, 1-[5-(Thiazolo[4,5-b]pyridin-2-yloxy)-benzofuran-2-ylmethyl]-piperidine-4-carboxylic acid amide], the 50% inhibitory concentration (IC50) in experiment [1] stood at 11 nM; in experiment [2] it was 320 nM.
`O=C1CN(Cc2coc3cc(Oc4nc5ncccc5s4)ccc23)CCN1` [Example 342, 4-[6-(Thiazolo[4,5-b]pyridin-2-yloxy)-benzofuran-3-ylmethyl]-piperazin-2-one]: the IC50 in experiment [1] came to 16 nM; in experiment [2], 230 nM.
On to `NC(=O)[C@H]1CCCN(Cc2c[nH]c3cc(Oc4nc5ccccc5s4)ccc23)C1` [Example 27, (3S)-1-[6-(Benzothiazol-2-yloxy)-1H-indol-3-ylmethyl]-piperidine-3-carboxylic acid amide], for which the concentration for half-maximal inhibition (IC50) amounted to 19 nM in experiment [1] and 136 nM in experiment [2].
In the case of `CCN(C(C)=O)C1CCN(Cc2coc3cc(Oc4nc5ncccc5s4)ccc23)CC1` [Example 353, N-Ethyl-N-{1-[6-(thiazolo[4,5-b]pyridin-2-yloxy)-benzofuran-3-ylmethyl]-piperidin-4-yl}-acetamide], the figures for the IC50 in experiment [1] and in experiment [2] were 6 nM and 22 nM, respectively.
For `O=C1Cc2cc(F)ccc2N1Cc1coc2cc(Oc3nc4ncccc4s3)ccc12` [Example 403, 5-Fluoro-1-[6-(thiazolo[4,5-b]pyridin-2-yloxy)-benzofuran-3-ylmethyl]-1,3-dihydro-indol-2-one], in that order: 47 nM and 690 nM.
Consider `c1ccc(CNCc2coc3cc(Oc4nc5ncccc5s4)ccc23)cc1` [Example 344, Benzyl-[6-(thiazolo[4,5-b]pyridin-2-yloxy)-benzofuran-3-ylmethyl]-amine], for which the figures for the IC50 in experiment [1] and in experiment [2] were 21 nM and 100 nM, respectively.
For `CS(=O)(=O)C1CCN(Cc2cc3cc(Oc4nc5ncccc5s4)ccc3o2)CC1` [Example 92, 2-[2-(4-Methanesulfonyl-piperidin-1-ylmethyl)-benzofuran-5-yloxy]-thiazolo[4,5-b]pyridine], in that order: 51 nM and 400 nM.

These data come from patent US8399465B2, “Compounds with two fused bicyclic heteroaryl moieties as modulators of leukotriene A4 hydrolase” (Janssen Pharmaceutica NV, priority 2009, dated 2013).
